What all share (assay type): in vivo
In one experiment the test system is Aperaspica-venti. The experiment can be described thus: Field trial in winter oilseed rape, pre-emergence, % control. How it is done:
(§1) Field trials were conducted on various moncotyledonous weeds and dicotyledonous weeds and the effect of D-isomer of Napropamide was studied to understand the selective and effective control of dicotyledonous weeds over monocotyledonous weeds. The effect of D-isomer of Napropamide in comparison to racemic napropramide and untreated was studied, which is concluded hereinbelow:
(§2) Several small plot replicated trials were carried out to evaluate and/or compare the efficacy of D-Napropamide against a range of indicated annual broadleaved and grass weed species in the indicated crops. No problems were encountered during mixing or application of any of the product formulations or tank mixtures under test.
(§3) In each of the reported data, the homogeneity of variance was tested by Bartlett's test. Wherever this test indicated no homogeneity of variance, the transformed values were used for analysis of variance. Assessment data was then analyzed using a two-way analysis of variance (ANOVA) on untransformed and transformed data. The probability of no significant differences occurring between treatment means was calculated as the F probability value (p(F)). A mean comparison test was only performed and reported when the treatment of F that was calculated during analysis of variance was significant at the observed significance level specified for the mean comparison test. Where the data was transformed, treatment means in the reports were presented in their detransformed state, with the appropriate letter test and mean descriptions (LSD and standard deviation) derived from the transformed ANOVA.
(§4) Trials were conducted to evaluate the selectivity and efficacy of D-isomer of Napropamide when applied pre-emergence to oilseed rape crop. The % control of weed was assessed at regular intervals.

The next experiment deals with Fallopia convolvulus. Described as above. Here is the method: as §1, §2, §3, §4
In experiment [1] the test system is Senecio vulgaris. Described as above. How it is done: as §1, §2, §3, §4
The test system of a further experiment is Veronica persica. Described as above. How it is done:
as §1, §2, §3, §4

A further experiment concerns Cirsium arvense. The description is as above. Here is the method:
as §1, §2, §3, §4

The next experiment deals with Poa annua. The experiment can be described thus: Pre-emergence glasshouse pot study, seedling emergence and growth (OECD guideline). The conditions noted are these: for Mean Final Foliar Fresh Weights Expressed as Percentage of Untreated Controls / Mean Final Foliar Fresh Weights: Poa annua; for Mean Final Foliar Fresh Weights: 21 days after 50% emergence, untreated 0.90. How it is done: (§5) A study was carried out to determine the relative biological activity of the D and L isomers of Napropamide when applied pre-emergence to one monocotyledon and one dicotyledon species. Napropamide, containing 450 grammes active substance per liter (g a.s./L) formulated as a suspension concentrate and the D-isomer of Napropamide (1000 g a.s./L) were applied at a range of concentrations from 0.1575 to 1.26 kilograms of active substance per hectare (kg a.s/Ha).
(§6) EC50 values in kg a.s./Ha were calculated from the dose response data using final foliar fresh weight data for each species and was used to determine the relative biological activity of the D and L isomers of Napropamide. The methodology was based on the OECD guideline […], according to the revision of July 2006 for seedling emergence and growth. The study was conducted to GLP standards.
(§7) Seeds were sown directly into non-porous plastic pots containing the following mix of soil: 10 L of sterile loam+4 L of coarse grit (washed quartztite, nominal 4 mm)+10 L of sand. This soil mix was characterized as a sandy loam with an organic carbon content of 1.5% and pH of 7.2. Details of the plant species, number of seeds per pot and pot size are shown below. All seeds were sown 1-2 cm deep.
(§8) The highest concentration of Napropamide was prepared by measuring a calculated volume by weight and diluting with tap water to the full required volume. Lower concentrations were prepared by serial dilution with water. D-Napropamide was prepared by dissolving the calculated weight in acetone and adding water to give the full required volume in 50:50 acetone+water. Lower concentrations were prepared by serial dilution with 50:50 acetone+water. D-Napropamide dissolved completely.
(§9) The sprayer was calibrated within 24 hours prior to application by weight of 15 applications of water to six 86 mm ID petri dishes. The total weight of water over a known area enabled a simple calculation giving the volume rate to be made. The volume rate achieved was within the range specified in the study plan (200 L/Ha±10%).
(§10) Replication was 5 pots per treatment for each plant species. After application, pots were placed on the bench in glasshouse in randomized blocks. Plants were assessed for emergence, mortality and visual injury (expressed as a percentage of the untreated control: 0%=no injury, 1-39%=slight injury, 40-69%=moderate injury, 70-99%=severe injury and 100%=all plants dead) at 14 and 21 days after 50% emergence in the untreated controls. Fresh weights (biomass above soil level) were also recorded 21 days after 50% emergence in the untreated controls. Plants were fully turgid at the time of harvest.
(§11) Assessment data was recorded on pro-forma sheets and entered into Gylling ARM 7 software. EC50 values were calculated using audited means data from the final assessments (21 day). Gylling ARM 7.0 software used a simple probit—maximum likelihood estimation method with 99% confidence level. The EC50 values generated were then visually checked against the means data table to verify they appeared correct.

The next experiment relates to Stellaria media. The experiment is described as above. The conditions noted are these: for EC50 based on the final fresh weights: Stellaria media (dicot), 21 day assessment, probit; for Mean Final Foliar Fresh Weights Expressed as Percentage of Untreated Controls / Mean Final Foliar Fresh Weights: Stellaria media; for Mean Final Foliar Fresh Weights: 21 days after 50% emergence, untreated 1.44. How it is done:
as §5, §6, §7, §8, §9, §10, §11

Experiment [2] has as its system Senecio vulgaris. Briefly: Field trial on strawberries, pre-emergence, visual % control. Here is the method:
as §1, §2, §3
(§12) Trial was carried out on strawberries to evaluate the efficacy and selectivity of D-Napropamide and equivalent rate of Devrinol (Napropramide) applied pre-emergence. […]

A further experiment relates to Papaver rhoeas. Described as above. Here is the method:
as §1, §2, §3, §12

The test system of another experiment is Digitaria sanguinalis. The experiment can be described thus: Plot trial, % control of Digitaria sanguinalis. Conditions: 9 L/Ha of 450 g/L formulation. Here is the method:
as §1, §2
as §3, with “ANOVA. […]” for “ANOVA.”

A further experiment relates to Matricaria sp. Briefly: Field trial in winter oilseed rape, pre-emergence, % control and ground cover. Conditions: 450 g/L @ 2.8 L/Ha. How it is done:
as §1, §2, §3, §4

In another experiment the test system is Ranunculus repens. Briefly: Field trial on strawberries, pre-emergence, visual % control. Here is the method: as §1, §2, §3
Trial was carried out on strawberries to evaluate the efficacy and selectivity of D-Napropamide and equivalent rate of Devrinol (Napropramide) applied pre-emergence. […] The percentage control of D-isomer of Napropamide and Devrinol was assessed in comparison to the untreated after 224 days after application.

“And” between values parts separate entries of the source, which are not always exact repeats. Identical values can stand only once.

With `CCN(CC)C(=O)C(C)Oc1cccc2ccccc12` (racemic) [Napropamide, N,N-diethyl-2-(α-naphthoxy)propionamide], the “Percentage Control at 63 DAA” value in the experiment on Aperaspica-venti (450 g/L @ 1.6 L/Ha) is 40.00%; with Aperaspica-venti (450 g/L @ 2.8 L/Ha), 76.25% and 67.50%; in the experiment on Fallopia convolvulus (450 g/L @ 1.6 L/Ha) it was 30.00%; in the experiment with Fallopia convolvulus (450 g/L @ 2.8 L/Ha), 0.00%; in the experiment on Senecio vulgaris [1] (450 g/L @ 1.6 L/Ha) it was 36.96%; with Senecio vulgaris [1] (450 g/L @ 2.8 L/Ha) it was 4.65%. Besides, the “Percentage Control at 63 DAA” value in the experiment with Veronica persica (450 g/L @ 1.6 L/Ha) and in the experiment on Veronica persica (450 g/L @ 2.8 L/Ha) was 75.00% each time. The “Mean Percentage Control” value in the experiment with Cirsium arvense (450 g/L @ 2.8 L/Ha) is 20.00%. The “Conclusion: control of the weed at equivalent dosage” value with Cirsium arvense (Cirsium arvense, dicot) is on record as “negligible control”. Besides, the “EC50 based on the final fresh weights” value worked out at 0.72 kg/Ha with Poa annua (Poa annua (monocot), 21 day assessment, probit) and 0.22 kg/Ha with Stellaria media. Moreover, the “Mean Final Foliar Fresh Weights Expressed as Percentage of Untreated Controls” value with Poa annua (rate 0.1575 kg/Ha) was 100%; with Poa annua (rate 1.26 kg/Ha) it was 23%; with Stellaria media (rate 0.1575 kg/Ha), 70%; in the experiment on Stellaria media (rate 1.26 kg/Ha), 16%. Moreover, the “Mean Final Foliar Fresh Weights” value with Poa annua (rate 0.315 kg/Ha pre-emergence) amounted to 0.57 g; in the experiment with Poa annua (rate 0.63 kg/Ha pre-emergence) it was 0.98 g; with Stellaria media (rate 0.315 kg/Ha pre-emergence), 0.3 g; in the experiment on Stellaria media (rate 0.63 kg/Ha pre-emergence), 0.328 g. The “Percentage Control at 70 DAA” value in the experiment on Senecio vulgaris [2] (5 L/Ha of 450 g/L formulation) amounted to 37.5%; in the experiment on Senecio vulgaris [2] (7 L/Ha of 450 g/L formulation), 25.0%; in the experiment with Senecio vulgaris [2] (14 L/Ha of 450 g/L formulation), 12.5%; with Papaver rhoeas (5 L/Ha of 450 g/L formulation) it was 62.5%; with Papaver rhoeas (7 L/Ha of 450 g/L formulation) it was 81.7%; in the experiment with Papaver rhoeas (14 L/Ha of 450 g/L formulation), 82.5%. In addition, the “% Control” value with Digitaria sanguinalis (16 DAA) is on record as 12.50%; with Digitaria sanguinalis (33 DAA) it was 15.00%. Further, the “Percentage ground cover %, value in brackets (untreated 0.0%)” value with Matricaria sp. is recorded as “(52.8%)”. For the same compound, the “Percentage Control at 49 DAA” value in the experiment with Matricaria sp. (oilseed rape) was found to be 61.25%. In the experiment on Matricaria sp. (untreated 4.50), the “Percentage ground cover %” value turned out to be 2.13%. The “Percentage Control at 224 DAA” value in the experiment with Ranunculus repens (5 L/Ha of 450 g/L formulation) is given as 33.3%; in the experiment with Ranunculus repens (7 L/Ha of 450 g/L formulation), 66.7%; in the experiment with Ranunculus repens (14 L/Ha of 450 g/L formulation), 83.3%.
Turning to `CCN(CC)C(=O)[C@H](C)Oc1cccc2ccccc12` [L-Napropamide, reference compound], the “EC50 based on the final fresh weights” value in the experiment with Stellaria media was 1.26 kg/Ha.

The values are drawn from patent US9307765B2, “Selective weed control using D-napropamide” (UPL Limited, priority 2013, dated 2016).
